Data on one molecule can be found in patent publication US11071735B2, “Treatment of inflammatory conditions and autoimmune diseases with glucose uptake inhibitors” (Kadmon Corporation, LLC, priority 2017, dated 2021).

The test system of test [1] is GLUT. Nature of the test: glycolysis assay (oligomycin + Cell Titer-Glo ATP readout) in HT1080 cells. To be noted: 10 μM oligomycin, one hour, glycolytically-derived ATP. It counts as cell-based. An outline of the steps: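 HT1080 cells exposed for one hour to compound plus 10 μM oligomycin to block mitochondrial ATP, so remaining ATP reflects glycolysis. Glycolytic ATP read by CellTiter-Glo luminescence; IC50 derived from dose-response curves.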
On the technique in general: ATP-based viability assays read luminescence as a measure of living cells.

Test [2] deals with T1, GLUT3 (Homo sapiens, UniProt P11169).
T1 construct: endogenous in cells; host or cells: DLD1 GLUT1−/− (knock-out) cancer cells
T1 sequence (P11169 1-496): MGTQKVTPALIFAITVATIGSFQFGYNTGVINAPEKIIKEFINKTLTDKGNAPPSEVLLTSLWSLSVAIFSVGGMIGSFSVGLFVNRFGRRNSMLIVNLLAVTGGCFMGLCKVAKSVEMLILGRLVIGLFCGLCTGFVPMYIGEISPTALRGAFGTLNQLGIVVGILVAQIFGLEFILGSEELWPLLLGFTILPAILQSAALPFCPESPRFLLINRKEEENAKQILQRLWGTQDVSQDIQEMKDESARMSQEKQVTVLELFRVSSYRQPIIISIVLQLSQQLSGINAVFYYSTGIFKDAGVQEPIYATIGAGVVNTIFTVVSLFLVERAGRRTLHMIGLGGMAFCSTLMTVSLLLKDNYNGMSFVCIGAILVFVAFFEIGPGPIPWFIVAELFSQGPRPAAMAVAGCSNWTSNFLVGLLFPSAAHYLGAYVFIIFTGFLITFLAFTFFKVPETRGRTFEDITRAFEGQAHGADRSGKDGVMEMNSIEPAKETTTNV
Briefly: glycolysis assay in DLD1 GLUT1−/− cells (rely on GLUT3). It counts as cell-based. To be noted: DLD1-KO (GLUT1−/−) cells; 10 μM oligomycin, one hour. An outline of the steps: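 Cells […] exposed for 1 h to inhibitor plus 10 μM oligomycin to block mitochondrial ATP; remaining glycolytic ATP read by CellTiter-Glo luminescence. IC50 derived from dose-response curves.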

Test [3] concerns THP1 monocytes. Nature of the test: glycolysis assay in LPS-activated THP1 monocytes. It counts as cell-based. To be noted: 1 μg/ml LPS 16 hrs, then one-hour glycolysis assay with oligomycin. As for the experimental part: (§1) In FIG. 5A, THP1 cells were activated with 1 μg/ml LPS for 16 hrs prior to a one-hour glycolysis assay (Example 2+Oligomycin). In FIG. 5B, THP1 cells were treated with Example 2 one hour prior to a 16 hour treatment with 1 μg/ml LPS, after which MCP-1 secretion into the media was measured by ELISA (R&D systems) and cell number measured by Cell Titer Glo (Promega).
(§2) THP1 Monocyte assay: THP1 monocytic cancer cells were activated with 1 ug/ml LPS (Sigma-Aldrich). The previously described glycolysis assay was performed 16 hrs post-activation. For cytokine secretion, cells were pre-treated for one hour with GLUT inhibitors prior to 16 hours of 1 μg/ml LPS treatment.

Test [4] concerns MCP-1 secretion. Briefly: MCP-1 secretion of LPS-treated THP1 monocytes (ELISA). It counts as cell-based. To be noted: THP1 cells, compound one hour prior to 16 hour 1 μg/ml LPS. As for the experimental part:
as §1, §2

In test [5] the test system is markers of Teff and Treg cells. Briefly: flow cytometry of cytokines and lineage transcription factors in activated CD4 T cells. To be noted: 1 μM; CD4 T cells activated 48 hrs with IL-1β, TGF-β. It counts as cell-based, human. How it is done:
FIG. 7. […] FIG. 7A. CD4 T cells were activated for 48 hrs in the presence of IL-1β, TGF-β and 1 μM of the Example 2 compound. For the last 5 hrs, PMA/Ionomycin/Brefeldin A was added and intracellular staining for cytokines was performed. Flow cytometry was used to assess INFγ and IL-17A levels (gated on live cells). FIG. 7B. Cells were cultured and treated as in FIG. 7A, excluding PMA/Ionomycin/Brefeldin A treatment. Flow cytometry was used to assess levels of CD4 T cell lineage defining transcription factors.
GLUT1 and GLUT3 inhibitors downregulate the markers of T effector cells but not T regulatory cells. In, CD4 T cells were activated for 48 hrs in the presence of […], TGF-β and 1 μM of compound Example 2. […] Flow cytometry was used to assess INFγ and IL-17A levels (gated on live cells) and quantification of percent positive cells positive is shown in FIG. 7A. […]
T cell assays: Human CD4 T cells were purified using RossetteSep Human CD4 T cell Enrichment Cocktail. […] IL-17 levels were measured by ELISA (R&D systems, Human IL-17 Quantikine ELISA kit). Proliferation was measured by Cell Titer Glo (Promega). Intracellular staining was performed and analyzed using the Guava EasyCyte flow cytometer. […] Protein levels and phosphorylation status were assessed by western blot analysis using antibodies purchased from Cell Signaling.

Regarding `CCOc1ccc2nc(-c3cccc(OCC(=O)NC(C)C)c3)nc(Nc3ccc(-c4cn[nH]c4)cc3)c2c1` [Ex. 2, 2-(3-(4-((4-(1H-pyrazol-4-yl)phenyl)amino)-6-ethoxyquinazolin-2-yl)phenoxy)-N-isopropylacetamide], the IC50 (in general, the midpoint of a concentration-inhibition curve) turned out to be 149 nM in test [1] and 60.9 nM in test [2]. The “glycolysis in LPS stimulated THP1 monocytes” value in test [3] is reported as “inhibit glycolysis”. Moreover, the MCP-1 secretion entry in test [4] is given as “inhibits cytokine/chemokine secretion”. Also, the “markers of Teff and Treg cells” value in test [5] is recorded as “downregulate markers of Teff but not Treg cells”.
